In ChEMBL document CHEMBL2375344, “Identification of pyrrolo[2,3-g]indazoles as new Pim kinase inhibitors” (Bioorg Med Chem Lett, 2013) one finds residual activity and IC50 data, which are given here for 20 molecules.

A word on the residual activity: it is the signal under treatment as a percentage of the control signal. Broadly, the pIC50 is −log10 of the IC50, conventionally taken in molar units.

Test [1] concerns the target Serine/threonine-protein kinase pim-2 (Homo sapiens) (UniProt Q9P1W9). The experiment in a line: Inhibition of human full length Pim-2 using RSRHSSYPAGT as substrate assessed as residual activity at 10 uM after 30 mins in presence of [gamma-33P]ATP; values are per cent of control.
In test [2] the target is T1, Serine/threonine-protein kinase pim-1 (Homo sapiens, UniProt P11309). The test can be described thus: Inhibition of human full length Pim-1 using RSRHSSYPAGT as substrate assessed as residual activity at 10 uM after 30 mins in presence of [gamma-33P]ATP; values are per cent of control.
Target sequence in this assay (P11309 whole entry, looked up): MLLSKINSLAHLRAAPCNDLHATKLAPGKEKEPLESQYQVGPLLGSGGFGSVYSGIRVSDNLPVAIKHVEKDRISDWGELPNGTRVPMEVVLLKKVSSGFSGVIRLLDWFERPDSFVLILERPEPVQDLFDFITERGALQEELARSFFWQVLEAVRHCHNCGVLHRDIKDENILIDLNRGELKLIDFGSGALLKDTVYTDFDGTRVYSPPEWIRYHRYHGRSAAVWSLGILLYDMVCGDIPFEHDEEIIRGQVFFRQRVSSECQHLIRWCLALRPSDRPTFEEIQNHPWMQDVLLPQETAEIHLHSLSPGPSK
The target of test [3] is T2, Serine/threonine-protein kinase pim-3 (Homo sapiens, UniProt Q86V86). The test can be described thus: Inhibition of human full length Pim-3 using RSRHSSYPAGT as substrate assessed as residual activity at 10 uM after 30 mins in presence of [gamma-33P]ATP; values are per cent of control.
Test [4] addresses T2, Serine/threonine-protein kinase pim-3. The test can be described thus: Inhibition of human full length Pim-3 using RSRHSSYPAGT as substrate assessed as residual activity at 1 uM after 30 mins in presence of [gamma-33P]ATP; values are per cent of control.
Test [5] has the same target. The test can be described thus: Inhibition of human full length Pim-3 using RSRHSSYPAGT as substrate assessed as residual activity after 30 mins in presence of [gamma-33P]ATP.
The target of test [6] is T1, Serine/threonine-protein kinase pim-1. The test can be described thus: Inhibition of human full length Pim-1 using RSRHSSYPAGT as substrate assessed as residual activity at 1 uM after 30 mins in presence of [gamma-33P]ATP; values are per cent of control.
Target sequence in this assay (P11309 whole entry, looked up): as the sequence (P11309 whole entry, looked up) above
Test [7] shares this target. The test can be described thus: Inhibition of human full length Pim-1 using RSRHSSYPAGT as substrate assessed as residual activity after 30 mins in presence of [gamma-33P]ATP.
Target sequence in this assay (P11309 whole entry): as the sequence (P11309 whole entry, looked up) above
For test [8], the target named is Serine/threonine-protein kinase pim-2 (Homo sapiens) (UniProt Q9P1W9). The test can be described thus: Inhibition of human full length Pim-2 using RSRHSSYPAGT as substrate assessed as residual activity at 1 uM after 30 mins in presence of [gamma-33P]ATP; values are per cent of control.
Chain of Serine/threonine-protein kinase pim-2 (Homo sapiens) (Q9P1W9 whole entry, looked up): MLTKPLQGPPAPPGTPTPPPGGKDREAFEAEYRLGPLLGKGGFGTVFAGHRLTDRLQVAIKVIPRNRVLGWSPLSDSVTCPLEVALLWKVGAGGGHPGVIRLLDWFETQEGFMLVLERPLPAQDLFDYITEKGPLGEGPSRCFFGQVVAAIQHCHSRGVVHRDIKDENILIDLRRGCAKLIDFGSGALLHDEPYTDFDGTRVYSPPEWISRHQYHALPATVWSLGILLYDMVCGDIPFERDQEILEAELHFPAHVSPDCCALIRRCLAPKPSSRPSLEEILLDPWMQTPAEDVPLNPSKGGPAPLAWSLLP

pIC50: −log10 of the molar value.

Regarding `Nc1cc2cn[nH]c2c2cc[nH]c12`, the residual activity is 104% in test [1]; 17% in test [2]; 4% in test [3]; 20% in test [4]; 63% in test [6]; 99% in test [8]. For the same molecule, the pIC50 was 7.48 in test [5] and 6.34 in test [7].

With `O=[N+]([O-])c1cc2cn[nH]c2c2cc[nH]c12`, the residual activity was found to be 80% in test [1]; 30% in test [2]; 18% in test [3]; 78% in test [4]; 102% in test [6]; 92% in test [8].

As for `CCOC(=O)c1[nH]c2c([N+](=O)[O-])cc3cn[nH]c3c2c1C`, the residual activity was found to be 97% in test [1]; 72% in test [2]; 47% in test [3]; 72% in test [4]; 78% in test [6]; 105% in test [8].

Consider `Cc1c[nH]c2c([N+](=O)[O-])cc3cn[nH]c3c12`, for which the residual activity in test [1] was 61%; in test [2], 26%; in test [3], 26%; in test [4], 77%; in test [6] it was 68%; in test [8], 99%.

Turning to `CCCc1c[nH]c2c(N)cc3cn[nH]c3c12`, the residual activity in test [1] stood at 93%; in test [2], 57%; in test [3] it was 39%; in test [4], 79%; in test [6] it was 104%; in test [8], 90%.

Turning to `CCOC(=O)c1[nH]c2c(N)cc3cn[nH]c3c2c1-c1ccccc1`, the residual activity is 74% in test [1]; 29% in test [2]; 20% in test [3]; 72% in test [4]; 74% in test [6]; 101% in test [8].

With `CCCc1c[nH]c2c([N+](=O)[O-])cc3cn[nH]c3c12`, the residual activity worked out at 27% in test [1]; 54% in test [2]; 6% in test [3]; 24% in test [4]; 78% in test [6]; 66% in test [8]. Also, the pIC50 in test [5] is 6.59.

On to `O=[N+]([O-])c1cc2cn[nH]c2c2c(-c3ccccc3)c[nH]c12`, for which the residual activity in test [1] was 70%; in test [2], 28%; in test [3], 21%; in test [4] it was 38%; in test [6], 52%; in test [8], 82%. Further, the negative logarithm of the IC50 (pIC50) in test [5] is 6.28; in test [7] it was 6.00.

Consider `C[Si](C)(C)c1cc2c([nH]1)c([N+](=O)[O-])cc1cn[nH]c12`, for which the residual activity is 64% in test [1]; 17% in test [2]; 9% in test [3]; 51% in test [4]; 63% in test [6]; 103% in test [8]. Besides, the pIC50 in test [5] was 6.33.

In the case of `CCCc1c(C(=O)OC)[nH]c2c([N+](=O)[O-])cc3cn[nH]c3c12`, the residual activity is 85% in test [1]; 39% in test [2]; 24% in test [3]; 50% in test [4]; 110% in test [6]; 113% in test [8]. Also, in test [5], the pIC50 is 6.26.

Regarding `O=Cc1c[nH]c2c([N+](=O)[O-])cc3cn[nH]c3c12`, the residual activity was found to be 70% in test [1]; 27% in test [2]; 25% in test [3]; 76% in test [4]; 97% in test [6]; 117% in test [8].

Consider `CCOC(=O)c1[nH]c2c([N+](=O)[O-])cc3cn[nH]c3c2c1-c1ccccc1`, for which the residual activity in test [1] was found to be 113%; in test [2], 55%; in test [3] it was 90%; in test [4], 73%; in test [6], 86%; in test [8], 92%.

As to `CCOC(=O)c1[nH]c2c(N)cc3cn[nH]c3c2c1C`, the residual activity in test [1] stood at 97%; in test [2] it was 61%; in test [3], 26%; in test [4] it was 93%; in test [6] it was 93%; in test [8], 102%.

`CCc1[nH]c2c([N+](=O)[O-])cc3cn[nH]c3c2c1-c1ccccc1`: the residual activity turned out to be 84% in test [1]; 51% in test [2]; 36% in test [3]; 31% in test [4]; 43% in test [6]; 77% in test [8]. Further, the pIC50 in test [5] is 6.92; in test [7], 6.64.

As to `C[Si](C)(C)c1cc2c([nH]1)c(N)cc1cn[nH]c12`, the residual activity in test [1] came to 111%; in test [2], 52%; in test [3] it was 24%; in test [4], 67%; in test [6], 94%; in test [8] it was 93%.

`CCc1[nH]c2c(N)cc3cn[nH]c3c2c1-c1ccccc1`: the residual activity came out at 75% in test [1]; 44% in test [2]; 23% in test [3]; 72% in test [4]; 92% in test [6]; 91% in test [8].

In the case of `Cc1c[nH]c2c(N)cc3cn[nH]c3c12`, the residual activity came out at 88% in test [1]; 63% in test [2]; 17% in test [3]; 65% in test [4]; 91% in test [6]; 105% in test [8].

As for `CCOCc1c[nH]c2c([N+](=O)[O-])cc3cn[nH]c3c12`, the residual activity in test [1] was 63%; in test [2] it was 26%; in test [3], 19%; in test [4] it was 71%; in test [6] it was 82%; in test [8] it was 109%.

As to `CCCc1c(C(=O)OC)[nH]c2c(N)cc3cn[nH]c3c12`, the residual activity turned out to be 78% in test [1]; 26% in test [2]; 12% in test [3]; 82% in test [4]; 71% in test [6]; 105% in test [8].

As to `Nc1cc2cn[nH]c2c2c(-c3ccccc3)c[nH]c12`, the residual activity in test [1] turned out to be 92%; in test [2], 51%; in test [3], 26%; in test [4] it was 68%; in test [6] it was 111%; in test [8] it was 103%.
